Earlier results in patent US20040120995A1, “Transdermal delivery of pergolide” (priority 2003, published 2004).
Where a name gives a salt, the structure may show the parent alone. Read-outs that look alike come from different tables or passages of the source.

Conditions: for Pergolide Blood Serum Level: human subjects

For `CCCN1C[C@H](CSC)C[C@@H]2c3cccc4[nH]cc(c34)C[C@H]21` [pergolide mesylate], the “maximum blood serum level” value (2-3 hours following a 2.5 mg oral dose) is listed as “about 500 picograms/ml”, the blood serum level (8 hours following a 0.5 mg oral dose) is listed as “about 60 picograms/ml” and the “Pergolide Blood Serum Level” value (oral dose 0.25 milligrams) is listed as 47.75 picograms/ml. The “Pergolide Blood Serum Level” value (oral dose 0.50 milligrams) was 100.08 picograms/ml, the “Pergolide Blood Serum Level” value (oral dose 1.00 milligrams) was 199.33 picograms/ml and the “Pergolide Blood Serum Level” value (oral dose 2.00 milligrams) was 398.66 picograms/ml. The “Pergolide Blood Serum Level” value (oral dose 3.00 milligrams) was 597.99 picograms/ml and the peak serum concentration (oral dosing 3 mg/24 hours, divided into three doses) was “approximately 200 pg/ml”.
